Measured values taken from PubChem BioAssay (NCI).
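Step 1: Grow cells in 96-well plates. Step 2: Expose to compound for 48 hours at 5 concentrations. Step 3: Interpolate endpoints linearly; if unreached, use highest concentration. TGI denotes the concentration required for complete inhibition of growth.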

Assays:
Assay in all cases: NCI-60 cell line screen, 48 h
MCF7 breast = tested on: MCF7 breast
MDA-MB-435 = tested on: MDA-MB-435
MDA-N = tested on: MDA-N
SN12C renal = tested on: SN12C renal
NCI-H226 lung = tested on: NCI-H226 lung
PC-3 prostate = tested on: PC-3 prostate
T-47D breast = tested on: T-47D breast
M14 melanoma = tested on: M14 melanoma
RXF 393 renal = tested on: RXF 393 renal
A549 NSCLC = tested on: A549 NSCLC
OVCAR-3 ovarian = tested on: OVCAR-3 ovarian
HS 578T breast = tested on: HS 578T breast
SK-MEL-28 melanoma = tested on: SK-MEL-28 melanoma
NCI-H522 lung = tested on: NCI-H522 lung
ACHN renal = tested on: ACHN renal
UACC-257 melanoma = tested on: UACC-257 melanoma
HL-60(TB) leukemia = tested on: HL-60(TB) leukemia
HOP-62 NSCLC = tested on: HOP-62 NSCLC
MALME-3M melanoma = tested on: MALME-3M melanoma
TK-10 renal = tested on: TK-10 renal
IGROV1 ovarian = tested on: IGROV1 ovarian
COLO 205 colon = tested on: COLO 205 colon
SF-268 CNS = tested on: SF-268 CNS
HCT-15 colon = tested on: HCT-15 colon
KM12 colon = tested on: KM12 colon
OVCAR-5 ovarian = tested on: OVCAR-5 ovarian
OVCAR-8 ovarian = tested on: OVCAR-8 ovarian
HCT-116 colon = tested on: HCT-116 colon
SF-295 CNS = tested on: SF-295 CNS
SK-MEL-5 melanoma = tested on: SK-MEL-5 melanoma
NCI/ADR-RES ovarian = tested on: NCI/ADR-RES ovarian
UACC-62 melanoma = tested on: UACC-62 melanoma
HT29 colon = tested on: HT29 colon
SW-620 colon = tested on: SW-620 colon
SNB-75 CNS = tested on: SNB-75 CNS
SK-OV-3 ovarian = tested on: SK-OV-3 ovarian
HCC-2998 colon = tested on: HCC-2998 colon
OVCAR-4 ovarian = tested on: OVCAR-4 ovarian
SF-539 CNS = tested on: SF-539 CNS
NCI-H460 lung = tested on: NCI-H460 lung
A498 renal = tested on: A498 renal
MDA-MB-231 breast = tested on: MDA-MB-231 breast
SNB-19 CNS = tested on: SNB-19 CNS
SR leukemia = tested on: SR leukemia
HOP-92 NSCLC = tested on: HOP-92 NSCLC
U251 CNS = tested on: U251 CNS
BT-549 breast = tested on: BT-549 breast
DU-145 prostate = tested on: DU-145 prostate
786-0 renal = tested on: 786-0 renal
SK-MEL-2 melanoma = tested on: SK-MEL-2 melanoma
CAKI-1 renal = tested on: CAKI-1 renal
RPMI-8226 leukemia = tested on: RPMI-8226 leukemia
MOLT-4 leukemia = tested on: MOLT-4 leukemia
NCI-H23 lung = tested on: NCI-H23 lung
LOX IMVI melanoma = tested on: LOX IMVI melanoma
EKVX NSCLC = tested on: EKVX NSCLC
CCRF-CEM leukemia = tested on: CCRF-CEM leukemia
UO-31 renal = tested on: UO-31 renal
K-562 leukemia = tested on: K-562 leukemia

`N#C/C=C(/NC(=O)Nc1ccccc1)N1CCCC1` was tested, and the TGI (MCF7 breast) was > 55 µM, the TGI (MDA-MB-435) was > 100 µM and the TGI (MDA-N) was > 100 µM. For the same molecule, the TGI (SN12C renal) was > 100 µM, the TGI (NCI-H226 lung) was > 65.9 µM and the TGI (PC-3 prostate) was > 54.5 µM. For the same molecule, the TGI (T-47D breast) was > 100 µM, the TGI (M14 melanoma) was > 100 µM and the TGI (RXF 393 renal) was > 100 µM. For the same molecule, the TGI (A549 NSCLC) was > 61.3 µM, the TGI (OVCAR-3 ovarian) was > 100 µM and the TGI (HS 578T breast) was > 100 µM. For the same molecule, the TGI (SK-MEL-28 melanoma) was > 83.3 µM, the TGI (NCI-H522 lung) was > 60.8 µM and the TGI (ACHN renal) was > 57.3 µM. For the same molecule, the TGI (UACC-257 melanoma) was > 100 µM, the TGI (HL-60(TB) leukemia) was > 100 µM and the TGI (HOP-62 NSCLC) was > 35.8 µM. For the same molecule, the TGI (MALME-3M melanoma) was > 66.9 µM, the TGI (TK-10 renal) was > 55.4 µM and the TGI (IGROV1 ovarian) was > 76.3 µM. For the same molecule, the TGI (COLO 205 colon) was > 100 µM, the TGI (SF-268 CNS) was > 46.4 µM and the TGI (HCT-15 colon) was > 100 µM. The TGI (KM12 colon) was > 100 µM, the TGI (OVCAR-5 ovarian) was > 100 µM and the TGI (OVCAR-8 ovarian) was > 51.8 µM. For the same molecule, the TGI (HCT-116 colon) was > 55.5 µM, the TGI (SF-295 CNS) was > 43.8 µM and the TGI (SK-MEL-5 melanoma) was > 100 µM. For the same molecule, the TGI (NCI/ADR-RES ovarian) was > 61.5 µM, the TGI (UACC-62 melanoma) was > 100 µM and the TGI (HT29 colon) was > 100 µM. The TGI (SW-620 colon) was > 63.7 µM, the TGI (SNB-75 CNS) was > 21.4 µM and the TGI (SK-OV-3 ovarian) was > 100 µM. For the same molecule, the TGI (HCC-2998 colon) was > 53 µM, the TGI (OVCAR-4 ovarian) was > 100 µM and the TGI (SF-539 CNS) was > 65.7 µM. For the same molecule, the TGI (NCI-H460 lung) was > 55.4 µM, the TGI (A498 renal) was > 100 µM and the TGI (MDA-MB-231 breast) was > 100 µM. For the same molecule, the TGI (SNB-19 CNS) was > 45.6 µM, the TGI (SR leukemia) was > 100 µM and the TGI (HOP-92 NSCLC) was > 62.2 µM. For the same molecule, the TGI (U251 CNS) was > 53.8 µM, the TGI (BT-549 breast) was > 100 µM and the TGI (DU-145 prostate) was > 85.6 µM. For the same molecule, the TGI (786-0 renal) was > 100 µM, the TGI (SK-MEL-2 melanoma) was > 52.6 µM and the TGI (CAKI-1 renal) was > 59.8 µM. For the same molecule, the TGI (RPMI-8226 leukemia) was > 100 µM, the TGI (MOLT-4 leukemia) was > 100 µM and the TGI (NCI-H23 lung) was > 64.7 µM. The TGI (LOX IMVI melanoma) was 97.4 µM, the TGI (EKVX NSCLC) was > 97 µM and the TGI (CCRF-CEM leukemia) was > 100 µM. For the same molecule, the TGI (UO-31 renal) was > 100 µM and the TGI (K-562 leukemia) was > 100 µM.
In the case of `CC(=O)Oc1ccc2c(c1)O/C(=C\c1ccc(N(C)C)cc1)C2=O`, the TGI (MCF7 breast) is reported as > 100 µM, the TGI (MDA-MB-435) is reported as > 100 µM and the TGI (MDA-N) is reported as > 100 µM. The TGI (SN12C renal) was > 100 µM, the TGI (NCI-H226 lung) was > 100 µM and the TGI (PC-3 prostate) was > 100 µM. The TGI (T-47D breast) was > 100 µM, the TGI (M14 melanoma) was > 100 µM and the TGI (RXF 393 renal) was > 100 µM. The TGI (A549 NSCLC) was > 100 µM, the TGI (HS 578T breast) was 60.8 µM and the TGI (SK-MEL-28 melanoma) was > 100 µM. For the same molecule, the TGI (NCI-H522 lung) was 66.2 µM, the TGI (ACHN renal) was > 100 µM and the TGI (UACC-257 melanoma) was > 100 µM. The TGI (HL-60(TB) leukemia) was > 100 µM, the TGI (HOP-62 NSCLC) was > 100 µM and the TGI (TK-10 renal) was > 100 µM. The TGI (IGROV1 ovarian) was > 100 µM, the TGI (COLO 205 colon) was > 100 µM and the TGI (SF-268 CNS) was > 100 µM. The TGI (HCT-15 colon) was > 100 µM, the TGI (KM12 colon) was > 100 µM and the TGI (OVCAR-8 ovarian) was > 100 µM. The TGI (HCT-116 colon) was > 100 µM, the TGI (SK-MEL-5 melanoma) was > 100 µM and the TGI (NCI/ADR-RES ovarian) was > 100 µM. For the same molecule, the TGI (UACC-62 melanoma) was > 100 µM, the TGI (HT29 colon) was > 100 µM and the TGI (SW-620 colon) was > 100 µM. The TGI (SNB-75 CNS) was > 100 µM, the TGI (SK-OV-3 ovarian) was > 100 µM and the TGI (HCC-2998 colon) was > 100 µM. The TGI (OVCAR-4 ovarian) was > 100 µM, the TGI (SF-539 CNS) was > 100 µM and the TGI (NCI-H460 lung) was > 100 µM. The TGI (MDA-MB-231 breast) was > 100 µM, the TGI (SNB-19 CNS) was > 100 µM and the TGI (SR leukemia) was > 100 µM. For the same molecule, the TGI (U251 CNS) was > 100 µM, the TGI (BT-549 breast) was > 100 µM and the TGI (DU-145 prostate) was > 100 µM. The TGI (786-0 renal) was > 100 µM, the TGI (CAKI-1 renal) was > 100 µM and the TGI (RPMI-8226 leukemia) was > 100 µM. The TGI (MOLT-4 leukemia) was > 100 µM, the TGI (NCI-H23 lung) was > 100 µM and the TGI (EKVX NSCLC) was > 100 µM. For the same molecule, the TGI (CCRF-CEM leukemia) was > 100 µM, the TGI (UO-31 renal) was > 100 µM and the TGI (K-562 leukemia) was > 100 µM.
